Measurements as given in patent US9359301B2, “Ethynyl derivatives” (Hoffmann-La Roche Inc., priority 2012, dated 2016).

Tests used:
human mGlu5a receptor [1] = biological target: T1, human mGlu5a receptor (Homo sapiens (Human), UniProt P41594); test: MPEP binding assay ([3H]MPEP displacement); settings: for EC50: [3H]MPEP 2 nM, EBNA cell membranes, 1 h at 4° C., read-out: mGlu5-MPEP binding EC50; for Ki: comparison table
Procedure: For binding experiments, cDNA encoding human mGlu 5a receptor was transiently transfected into EBNA cells using a procedure described by Schlaeger and Christensen [Cytotechnology 15:1-13 (1998)]. Cell membrane homogenates were stored at −80° C. until the day of assay where upon they were thawed and resuspended and polytronised in 15 mM Tris-HCl, 120 mM NaCl, 100 mM KCl, 25 mM CaCl2, 25 mM MgCl2 binding buffer at pH 7.4 to a final assay concentration of 20 μg protein/well.
Saturation isotherms were determined by addition of twelve [^3H]MPEP concentrations (0.04-100 nM) to these membranes (in a total volume of 200 μl) for 1 h at 4° C. Competition experiments were performed with a fixed concentration of [^3H]MPEP (2 nM) and IC50 values of test compounds evaluated using 11 concentrations (0.3-10,000 nM). Incubations were performed for 1 h at 4° C.
At the end of the incubation, membranes were filtered onto unifilter (96-well white microplate with bonded GF/C filter preincubated 1 h in 0.1% PEI in wash buffer, Packard BioScience, Meriden, Conn.) with a Filtermate 96 harvester (Packard BioScience) and washed 3 times with cold 50 mM Tris-HCl, pH 7.4 buffer. Nonspecific binding was measured in the presence of 10 μM MPEP. The radioactivity on the filter was counted (3 min) on a Packard Top-count microplate scintillation counter with quenching correction after addition of 45 μl of microscint 40 (Canberra Packard S. A., Zürich, Switzerland) and shaking for 20 min.

human mGlu5a receptor [2] = biological target: T1, human mGlu5a receptor; test: Intracellular Ca2+ mobilization assay (mGlu5 PAM assay); format: cell-based; settings: for mGlu5 PAM EC50: HEK-293 cells, human mGlu5a, L-glutamate at EC20; for Activity profile: PAM = positive, NAM = negative allosteric modulator of mGlu5; for EC50 mGlu5 PAM assay: comparison table; for Efficacy: maximal response in % of maximal stimulatory effect of saturating L-glutamate
Procedure: A monoclonal HEK-293 cell line stably transfected with a cDNA encoding for the human mGlu5a receptor was generated; for the work with mGlu5 Positive Allosteric Modulators (PAMs), a cell line with low receptor expression levels and low constitutive receptor activity was selected to allow the differentiation of agonistic versus PAM activity. Cells were cultured according to standard protocols (Freshney, 2000) in Dulbecco's Modified Eagle Medium with high glucose supplemented with 1 mM glutamine, 10% (vol/vol) heat-inactivated bovine calf serum, Penicillin/Streptomycin, 50 μg/ml hygromycin and 15 μg/ml blasticidin (all cell culture reagents and antibiotics from Invitrogen, Basel, Switzerland).
About 24 hrs before an experiment, 5×10^4 cells/well were seeded in poly-D-lysine coated, black/clear-bottomed 96-well plates. The cells were loaded with 2.5 μM Fluo-4AM in loading buffer (1×HBSS, 20 mM HEPES) for 1 hr at 37° C. and washed five times with loading buffer. The cells were transferred into a Functional Drug Screening System 7000 (Hamamatsu, Paris, France), and 11 half logarithmic serial dilutions of test compound at 37° C. were added and the cells were incubated for 10-30 min. with on-line recording of fluorescence. Following this pre-incubation step, the agonist L-glutamate was added to the cells at a concentration corresponding to EC20 (typically around 80 μM) with on-line recording of fluorescence; in order to account for day-to-day variations in the responsiveness of cells, the EC20 of glutamate was determined immediately ahead of each experiment by recording of a full dose-response curve of glutamate.
Responses were measured as peak increase in fluorescence minus basal (i.e. fluorescence without addition of L-glutamate), normalized to the maximal stimulatory effect obtained with saturating concentrations of L-glutamate. Graphs were plotted with the % maximal stimulatory using XLfit, a curve fitting program that iteratively plots the data using Levenburg Marquardt algorithm. The single site competition analysis equation used was y=A+((B−A)/(1+((x/C)D))), where y is the % maximal stimulatory effect, A is the minimum y, B is the maximum y, C is the EC50, x is the log 10 of the concentration of the competing compound and D is the slope of the curve (the Hill Coefficient). From these curves the EC50 (concentration at which half maximal stimulation was achieved), the Hill coefficient as well as the maximal response in % of the maximal stimulatory effect obtained with saturating concentrations of L-glutamate were calculated.
A depression of the signal observed after addition of the EC20 concentration of L-glutamate was indicative of an inhibitory activity of the test compound.

T1 sequence (P41594 other isoform, or with tags, fused parts or gaps): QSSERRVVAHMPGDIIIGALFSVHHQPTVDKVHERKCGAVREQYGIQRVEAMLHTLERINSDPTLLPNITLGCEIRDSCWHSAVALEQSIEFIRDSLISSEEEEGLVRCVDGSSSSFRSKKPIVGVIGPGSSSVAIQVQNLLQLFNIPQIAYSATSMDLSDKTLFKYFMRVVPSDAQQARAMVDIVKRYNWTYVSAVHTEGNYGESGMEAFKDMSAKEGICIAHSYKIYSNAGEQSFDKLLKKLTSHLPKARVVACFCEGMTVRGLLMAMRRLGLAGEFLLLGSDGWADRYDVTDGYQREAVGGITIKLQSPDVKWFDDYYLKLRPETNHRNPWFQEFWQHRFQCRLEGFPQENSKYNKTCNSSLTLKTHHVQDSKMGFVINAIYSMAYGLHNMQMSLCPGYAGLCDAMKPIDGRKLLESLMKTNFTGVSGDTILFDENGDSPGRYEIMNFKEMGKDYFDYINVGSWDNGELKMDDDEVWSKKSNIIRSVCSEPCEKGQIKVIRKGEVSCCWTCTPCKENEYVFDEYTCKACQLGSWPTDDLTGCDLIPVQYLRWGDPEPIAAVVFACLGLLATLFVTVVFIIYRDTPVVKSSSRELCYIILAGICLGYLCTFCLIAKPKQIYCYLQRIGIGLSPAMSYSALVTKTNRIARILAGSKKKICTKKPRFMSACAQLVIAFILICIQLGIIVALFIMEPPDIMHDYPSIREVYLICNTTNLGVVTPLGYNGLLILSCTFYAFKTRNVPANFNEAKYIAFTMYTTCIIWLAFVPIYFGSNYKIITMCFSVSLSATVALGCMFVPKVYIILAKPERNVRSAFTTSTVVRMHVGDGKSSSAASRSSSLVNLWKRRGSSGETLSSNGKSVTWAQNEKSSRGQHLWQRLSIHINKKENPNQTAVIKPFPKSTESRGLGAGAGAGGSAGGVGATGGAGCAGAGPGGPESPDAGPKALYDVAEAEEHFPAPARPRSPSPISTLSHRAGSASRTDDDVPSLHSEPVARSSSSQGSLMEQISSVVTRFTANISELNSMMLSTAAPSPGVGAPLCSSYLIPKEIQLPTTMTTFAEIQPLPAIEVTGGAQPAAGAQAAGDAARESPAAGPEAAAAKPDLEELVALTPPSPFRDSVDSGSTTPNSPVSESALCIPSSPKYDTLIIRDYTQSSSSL

SMILES | EC50 (human mGlu5a receptor [1]) [nM] | Ki (human mGlu5a receptor [1]) [nM] | mGlu5 PAM EC50 (human mGlu5a receptor [2]) | Activity profile (human mGlu5a receptor [2]) | EC50 mGlu5 PAM assay (human mGlu5a receptor [2]) | Efficacy (human mGlu5a receptor [2]) [%]
CCN(C(=O)c1ncc(C#Cc2cccc(Cl)c2)cn1)C(C)(C)C [Example 4, 5-(3-Chloro-phenylethynyl)-pyrimidine-2-carboxylic acid tert-butyl-ethyl-amide] | 46 | 46 | in- active | NAM | inactive | –
CCN(C(=O)c1ncc(C#Cc2cccc(F)c2)cn1)C(C)(C)C [Example 3, 5-(3-Fluoro-phenylethynyl)-pyrimidine-2-carboxylic acid tert-butyl-ethyl-amide] | 94 | 94 | in- active | NAM | inactive | –
CN(C(=O)c1ncc(C#Cc2cccc(F)c2)cn1)C(C)(C)C [Reference compound 2, reference compound] | 51 | 51 | – | PAM | – | 55
CN(C(=O)c1ccc(C#Cc2cccc(F)c2)cn1)C(C)(C)C [Reference compound 1, reference compound] | 29 | – | – | PAM | – | 64

Second part, led by results:

EC50 (human mGlu5a receptor [1]) [nM] | Ki (human mGlu5a receptor [1]) [nM] | mGlu5 PAM EC50 (human mGlu5a receptor [2]) | Activity profile (human mGlu5a receptor [2]) | EC50 mGlu5 PAM assay (human mGlu5a receptor [2]) | SMILES | Efficacy (human mGlu5a receptor [2]) [%]
24 | 24 | in- active | NAM | inactive | CCN(C(=O)c1ccc(C#Cc2cccc(Cl)c2)cn1)C(C)(C)C [Example 2, 5-(3-Chloro-phenylethynyl)-pyridine-2-carboxylic acid tert-butyl-ethyl-amide] | –
42 | 42 | in- active | NAM | inactive | CCN(C(=O)c1ccc(C#Cc2cccc(F)c2)cn1)C(C)(C)C [Example 1, 5-(3-Fluoro-phenylethynyl)-pyridine-2-carboxylic acid tert-butyl-ethyl-amide] | –
